According to US6657061B2, “Polymorphic forms of 6-[4-1(1-cyclohexyl-1H-tetrazol-5-yl)butoxy]-3,4-dihydro-2(1H)-quinolinone” (priority 2001, dated 2003):

Assays:
[1] = stability of the polymorphic form (statement only); type: physicochemical; details: solid form; test conditions not given
[2] = DSC thermogram of combined Forms A, B and C; relative solubility inferred from melting points; type: physicochemical; details: suggested by the lower DSC melting point (weaker crystal packing forces), not measured directly
Source text: Characterization of Form A of cilostazol, Form B of cilostazol, and Form C of cilostazol was further completed using DSC thermograms, shown in FIGS. 3, 4, and 5, respectively, with DSC thermograms for combinations of Form A and Form B; Form B and Form C; and Forms A, B, and C are shown in FIGS. 6, 7, and 8 respectively. DSC data were generated using a Mettler-Toledo DSC 821^e (Columbus, Ohio) with a Julabo FT900 intercooler chiller (Julabo Company; Allentown, Pa.). In general, samples were analyzed in a vented, sealed aluminum pan. Because the endothermic peak may vary depending upon the rate of heating and the calibration and precision of the instrument, with the amount of peak variation dependent upon the heating rate used, all thermograms included herein were run under the same, consistent conditions: heating at 10° C. per minute under a nitrogen purge at 40 mL/minute.
FIG. 8 illustrates a DSC thermogram for the combination of Form A, Form B and Form C having a second heating cycle with a maximum temperature of about 110° C. with a holding time of about 30 minutes. The peaks in the third heating cycle show a Form A to Form B to Form C peak area ratio of approximately 8:2:1, respectively, with the relative amount of Form A, Form B and Form C further variable on the heat of enthalpy of each polymorphic form.

[3] = Form A as prepared by the procedures of the '479 patent; cited from earlier work
[4] = Form A as prepared by the procedures of the '479 patent; cited from earlier work; remark: listed apart in the source

Structure (SMILES) | stability of polymorph [1] | solubility relative to Form A [2] | aqueous solubility [3] | bioavailability [4]
O=C1CCc2cc(OCCCCc3nnnn3C3CCCCC3)ccc2N1 [Form B, 6-[4-(1-cyclohexyl-1H-tetrazol-5-yl)butoxy]-3,4-dihydro-2(1H)-quinolinone] | stable | more soluble than Form A |  | 
O=C1CCc2cc(OCCCCc3nnnn3C3CCCCC3)ccc2N1 [Form A, 6-[4-(1-cyclohexyl-1H-tetrazol-5-yl)butoxy]-3,4-dihydro-2(1H)-quinolinone] |  |  | low | low
